# Measurements as given in publication PMC3578935, “Biochemical Characterization of CTX-M-15 from Enterobacter cloacae and Designing a Novel Non-β-Lactam-β-Lactamase Inhibitor” (PLoS ONE, 2013).
# Entries after “also recorded” stand apart in the source; their conditions may differ. Read-outs that look alike come from different tables or passages of the source.
# Legend:
# CTX-M-15 [1] = target: T1, CTX-M-15 (Escherichia coli, UniProt Q9EXV5); conditions: for K m or K i: K m for good substrates, for poor substrates (ceftazidime, cefepime, aztreonam) determined as K i against 100 µM nitrocefin
# Experimental: The inhibitors used were Clavulanic acid, Sulabctam, Tazobactam and ZINC03787097.
# Hydrolysis of β-lactam antibiotics was detected by monitoring the variation in the absorbance due to cleavage of β-lactam ring in 50 mM phosphate buffer, pH 7.0 [28]. All the measurements were taken in triplicate on Shimadzu UV-VIS spectrophotometer (UV-1800). The reaction was performed in a total volume of 500 µl at 30°C. For dilution of the enzyme and to prevent denaturation, BSA was added to a final concentration of 20 µg/ml.
# [2] = tested on: E. coli DH5α (Null Plasmid); test: MIC by micro-dilution, null plasmid control strain; assay type: cell-based; conditions: Escherichia coli; in combinations clavulanic acid, sulbactam, tazobactam at 4 µg/ml, ZINC03787097 at 20 µg/ml; read-out: MIC DH5α(Null Plasmid)
# [3] = tested on: E. coli DH5α transformed with recombinant bla CTX-M-15 (pQE-2-CTX-M-15); test: MIC by micro-dilution, β-lactams alone or with inhibitors; assay type: cell-based; conditions: for fold lowering of MIC of cefotaxime in combination with inhibitor: DH5α transformed with bla CTX-M-15
# Experimental: E. coli DH5α and E. coli BL21 (DE3) were used for cloning and protein expression experiments, respectively. MICs were determined on E. coli DH5α transformed with cloned CTX-M-15 from Enterobacter cloacae clinical strain EC-15.
# The MICs for various antibiotics alone or in combination with various inhibitors (clavulanic acid, sulbactam, tazobactam and ZINC03787097) were determined by micro-dilution method and the results were interpreted according to Clinical Laboratory Standards Institute (CLSI) guidelines. Briefly, E. coli DH5α cells transformed with CTX-M-15 was treated with increasing concentrations of the antibiotics ranging from 0.5 to 2000 µg/ml in a series of two fold dilutions. The inhibitors clavulanic acid, sulbactam and tazobactam were used at a fixed concentration of 4 µg/ml, while ZINC03787097 was used at 20 µg/ml.
# CTX-M-15 [4] = target: T1, CTX-M-15; test: IC50 determination, nitrocefin hydrolysis after 5 min pre-incubation; assay type: biochemical, Enterobacter cloacae; parameters: His tag (inferred from the pQE-2 vector and Ni-NTA purification); made in house; host or cells: E. coli BL21 (DE3); conditions: IC50, 5 min pre-incubation at 30°C; 100 µM nitrocefin
# Experimental: The 50% inhibitory concentration (IC50) was determined as the concentration of the inhibitor that inhibited hydrolytic activity of the enzyme by 50%.
# CTX-M-15 [5] = target: T1, CTX-M-15; test: Enzyme inhibition kinetics (acylation/deacylation, competition with nitrocefin); conditions: for K′: dissociation constant of the Henri-Michaelis complex; for k +2 x 10^−2: first-order acylation constant, values x 10^−2
# Source text: (§1) The parameters k +2, k +3 and K′ are the first-order acylation and deacylation constants, and the dissociation constant of the Henri-Michaelis complex, respectively.
# (§2) where, v o, v t and v ss are the rates of utilization of the reporter substrate at times 0 and t, and after the steady-state has been established, respectively.
# (§3) The individual parameters, k +2, k +3 and K′, were derived from the dependence of k i upon inhibitor concentration, [C], on the basis of the following equation: [drawing 10]
# (§4) When the concentration of inhibitor [C] is well below K′, k i varies linearly the above equations is simplified as: [drawing 11]
# (§5) The k +2/K′ value is then obtained from the slope of the line, whereas k +3 is given by the intercept at [C] = 0. Conversely, if [C] is much larger than K′ (K m+[S])/K m, then k i = k +2+k +3, and is independent of [C]
# CTX-M-15 [6] = target: T1, CTX-M-15; assay type: biochemical, Enterobacter cloacae; parameters: His tag (inferred from the pQE-2 vector and Ni-NTA purification); made in house; host or cells: E. coli BL21 (DE3)
# CTX-M-15 [7] = target: T1, CTX-M-15; test: Stability of ZINC03787097 in the presence of CTX-M-15 (UV absorbance); assay type: biochemical, Enterobacter cloacae; parameters: His tag (inferred from the pQE-2 vector and Ni-NTA purification); made in house; host or cells: E. coli BL21 (DE3); conditions: 100 µM inhibitor, 10 nM CTX-M-15, 3600 seconds, absorbance at 283 nm and 222 nm
# Experimental: The UV absorption spectrum (320-210 nm) of ZINC03787097 (100 µM) alone or after 3600 seconds incubation with CTX-M-15 (10 nM) was measured in 50 mM phosphate buffer, pH 7.0 at 30°C on Shimadzu UV-VIS spectrophotometer (UV-1800). The stability of ZINC03787097 in the presence of CTX-M-15 was monitored by measuring the absorbance for 3600 seconds at 283 nm and 222 nm.
# [8] = tested on: CO/N=C(\C(=O)N[C@@H]1C(=O)N2C(C(=O)O)=C(CSc3nc(=O)c(=O)[nH]n3C)CS[C@H]12)c1csc(N)n1; test: purified protein, by the assay type; conditions: other: 50 mM phosphate buffer pH 7.0, 30°C
# [9] = tested on: CCN1CCN(C(=O)N[C@@H](C(=O)N[C@@H]2C(=O)N3[C@@H]2SC(C)(C)[C@@H]3C(=O)O)c2ccccc2)C(=O)C1=O; test: purified protein, by the assay type; conditions: other: 50 mM phosphate buffer pH 7.0, 30°C
# [10] = tested on: C[C@]1(Cn2ccnn2)[C@H](C(=O)O)N2C(=O)C[C@H]2S1(=O)=O; test: purified protein, by the assay type; conditions: other: slope of k i versus inhibitor concentration
# Source text: as §1, §2, §3, §4, §5
# [11] = tested on: CO/N=C(\C(=O)N[C@@H]1C(=O)N2C(C(=O)O)=C(COC(C)=O)CS[C@H]12)c1csc(N)n1; test: purified protein, by the assay type; conditions: other: 50 mM phosphate buffer pH 7.0, 30°C
# [12] = tested on: CO/N=C(\C(=O)N[C@@H]1C(=O)N2C(C(=O)O)=C(COC(N)=O)CS[C@H]12)c1ccco1; test: purified protein, by the assay type; conditions: other: 50 mM phosphate buffer pH 7.0, 30°C
# [13] = tested on: CC1(C)S[C@@H]2[C@H](NC(=O)[C@H](N)c3ccccc3)C(=O)N2[C@H]1C(=O)O; test: purified protein, by the assay type; conditions: other: 50 mM phosphate buffer pH 7.0, 30°C
# [14] = tested on: CC(C)(O/N=C(\C(=O)N[C@@H]1C(=O)N2C(C(=O)[O-])=C(C[n+]3ccccc3)CS[C@H]12)c1csc(N)n1)C(=O)O; test: purified protein, by the assay type; conditions: other: 50 mM phosphate buffer pH 7.0, 30°C
# [15] = tested on: O=C(Cc1cccs1)N[C@@H]1C(=O)N2C(C(=O)O)=C(/C=C/c3ccc([N+](=O)[O-])cc3[N+](=O)[O-])CS[C@H]12; test: purified protein, by the assay type; conditions: other: 50 mM phosphate buffer pH 7.0, 30°C
# [16] = K i calculated as K i = k +3 K/k +2, calculated value
# [17] = K i, determined at steady-state, competition with 100 µM nitrocefin
compound,measurement,setting,value
CO/N=C(\C(=O)N[C@@H]1C(=O)N2C(C(=O)O)=C(COC(N)=O)CS[C@H]12)c1ccco1 [Cefuroxime],K m or K i,CTX-M-15 [1],29000 ± 2000 nM
same,MIC,[2],1 µg/mL
O=C(O)[C@H]1/C(=C/CO)O[C@@H]2CC(=O)N21 [Clavulanic acid],fold lowering of MIC of cefotaxime in combination with inhibitor,[3],16 fold
same,IC50,CTX-M-15 [4],14 nM
same,Ki,CTX-M-15 [5]; [16],106 nM
same,Ki,CTX-M-15 [5]; [17],99 nM
same,K′,CTX-M-15 [5],0.72 µM
same,k +2 x 10^−2,CTX-M-15 [5],1.3 s^−1
O=C(Cc1cccs1)N[C@@H]1C(=O)N2C(C(=O)O)=C(/C=C/c3ccc([N+](=O)[O-])cc3[N+](=O)[O-])CS[C@H]12 [Nitrocefin],K m for nitrocefin hydrolysis,"CTX-M-15 [6]; 0.00 µM ZINC03787097, 0.50 nM CTX-M-15",42 µM
same,k cat,"CTX-M-15 [1]; 50 mM phosphate buffer pH 7.0, 30°C",582 s⁻¹
same,K m or K i,CTX-M-15 [1],35000 ± 4000 nM
CCN1CCN(C(=O)N[C@@H](C(=O)N[C@@H]2C(=O)N3[C@@H]2SC(C)(C)[C@@H]3C(=O)O)c2ccccc2)C(=O)C1=O [Piperacillin],K m or K i,CTX-M-15 [1],32000 ± 5000 nM
same,MIC,[2],1 µg/mL
CC1(C)[C@H](C(=O)O)N2C(=O)C[C@H]2S1(=O)=O [Sulbactam],fold lowering of MIC of cefotaxime in combination with inhibitor,[3],2 fold
same,IC50,CTX-M-15 [4],212 nM
same,Ki,CTX-M-15 [5]; [16],131 nM
same,Ki,CTX-M-15 [5]; [17],62 nM
same,K′,CTX-M-15 [5],0.55 µM
same,k +2 x 10^−2,CTX-M-15 [5],1.6 s^−1
C[C@]1(Cn2ccnn2)[C@H](C(=O)O)N2C(=O)C[C@H]2S1(=O)=O [Tazobactam],fold lowering of MIC of cefotaxime in combination with inhibitor,[3],8 fold
same,fold reduction of MICs of β-lactam antibiotics,[3]; inhibitor in combination with β-lactam antibiotics,2–16 folds
same,IC50,CTX-M-15 [4],1 nM
same,Ki,CTX-M-15 [5]; [16],13 nM
same,Ki,CTX-M-15 [5]; [17],17 nM
same,K′,CTX-M-15 [5],0.03 µM
same,k +2 x 10^−2,CTX-M-15 [5],1.3 s^−1
CC#CCC(C)C(O)C=CC1C(O)CC2Oc3c(CCCC(=O)O)cccc3C21 (stereo not drawn) [ZINC03787097],K m for nitrocefin hydrolysis in the presence of inhibitor,"CTX-M-15 [6]; 0.25 µM ZINC03787097, 0.50 nM CTX-M-15",67 µM
same,K m for nitrocefin hydrolysis in the presence of inhibitor,"CTX-M-15 [6]; 0.50 µM ZINC03787097, 0.50 nM CTX-M-15",94 µM
same,K m for nitrocefin hydrolysis in the presence of inhibitor,"CTX-M-15 [6]; 0.75 µM ZINC03787097, 0.50 nM CTX-M-15",96 µM
same,mode of inhibition,CTX-M-15 [6]; Lineweaver-Burg plot,reversible inhibitor; also recorded: competitive inhibition
same,Vmax of nitrocefin hydrolysis,CTX-M-15 [6]; similar at 0.00-0.75 µM ZINC03787097,3.22e-07 M/s
same,fold lowering of MIC of cefotaxime in combination with inhibitor,[3],2 fold
same,effect on MICs of antibiotics of cephalosporin group,[3]; ZINC03787097 at 20 µg/ml,reduced in the presence of ZINC03787097 to a level observed in the case of antibiotic-sulbactam combination
same,IC50,CTX-M-15 [4],180 nM
same,Ki,CTX-M-15 [5]; [17],388 nM
same,hydrolysis of inhibitor by CTX-M-15,CTX-M-15 [7],no detectable hydrolysis; also recorded: negligible hydrolysis
CTX-M-15 (Escherichia coli),kcat,[8],82 ± 5 s⁻¹
same,kcat/Km,[8],2.5e+06 M⁻¹ s⁻¹
same,kcat,[9],58 ± 4 s⁻¹
same,kcat/Km,[9],1.8e+06 M⁻¹ s⁻¹
same,kcat/Km,[10],440000 M⁻¹ s⁻¹
same,kcat,[11],222 ± 7 s⁻¹
same,kcat/Km,[11],3.7e+06 M⁻¹ s⁻¹
same,kcat,[12],87 ± 2 s⁻¹
same,kcat/Km,[12],3e+06 M⁻¹ s⁻¹
same,kcat,[13],57 ± 3 s⁻¹
same,kcat/Km,[13],3.8e+06 M⁻¹ s⁻¹
same,kcat,[14],1.51 ± 0.03 s⁻¹
same,kcat/Km,[14],1200 M⁻¹ s⁻¹
same,kcat,[15],582 s⁻¹
same,kcat/Km,[15],1.66e+07 M⁻¹ s⁻¹
